From ChEMBL document CHEMBL3632463, “Discovery and structure-activity analysis of 4-((5-nitropyrimidin-4-yl)amino)benzimidamide derivatives as novel protein arginine methyltransferase 1 (PRMT1) inhibitors” (Bioorg Med Chem Lett, 2015)
Calls of active or inactive are those of the source. The calls are words filed in the database; no cut-off is given here.

How the values were obtained:
[1] = biological target: T1, Protein arginine N-methyltransferase 1 (Homo sapiens, UniProt Q99873); assay: Inhibition of PRMT1 (unknown origin) using biotinylated histone H4-derived peptide as substrate at 50 uM after 60 mins by AlphaLISA assay
Target sequence in this assay (Q99873 whole entry, looked up): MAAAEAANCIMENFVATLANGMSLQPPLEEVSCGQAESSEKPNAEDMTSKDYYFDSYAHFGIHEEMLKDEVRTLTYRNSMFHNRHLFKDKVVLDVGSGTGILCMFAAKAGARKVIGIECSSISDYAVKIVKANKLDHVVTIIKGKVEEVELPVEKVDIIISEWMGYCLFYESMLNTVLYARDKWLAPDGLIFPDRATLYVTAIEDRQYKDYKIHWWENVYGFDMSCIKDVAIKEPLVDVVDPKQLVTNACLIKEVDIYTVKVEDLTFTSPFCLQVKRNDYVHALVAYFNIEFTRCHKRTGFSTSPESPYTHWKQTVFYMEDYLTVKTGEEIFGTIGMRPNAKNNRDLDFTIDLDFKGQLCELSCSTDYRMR

[2] = biological target: T1, Protein arginine N-methyltransferase 1; assay: Inhibition of PRMT1 (unknown origin) using biotinylated histone H4-derived peptide as substrate after 60 mins by AlphaLISA assay
Target sequence in this assay (Q99873 whole entry): as the sequence (Q99873 whole entry, looked up) above

SH-SY5Y = assay: Cytotoxicity against human SH-SY5Y cells by MTT assay; type: functional, cell-based
A-375 = assay: Cytotoxicity against human A375 cells by MTT assay; type: functional, cell-based
[3] = Cytotoxicity against human T24 cells by MTT assay; type: functional, cell-based; conditions: T-24
MCF7 = assay: Cytotoxicity against human MCF7 cells by MTT assay; type: functional, cell-based
[4] = Cytotoxicity against human DLD1 cells by MTT assay; type: functional, cell-based; conditions: DLD-1
[5] = Cytotoxicity against human UM-UC-3 cells by MTT assay; type: functional, cell-based; conditions: UMUC3
[6] = biological target: T1, Protein arginine N-methyltransferase 1; assay: Non-competitive inhibition of PRMT1 (unknown origin) using biotinylated histone H4-derived peptide as substrate by Michaelis-Menten kinetic equation analysis
Target sequence in this assay (Q99873 whole entry): as the sequence (Q99873 whole entry, looked up) above

[7] = biological target: T2, Histone-arginine methyltransferase CARM1 (Homo sapiens, UniProt Q86X55); assay: Inhibition of PRMT4 (unknown origin) using biotinylated histone H4-derived peptide as substrate after 60 mins by AlphaLISA assay
T2 sequence (Q86X55 whole entry): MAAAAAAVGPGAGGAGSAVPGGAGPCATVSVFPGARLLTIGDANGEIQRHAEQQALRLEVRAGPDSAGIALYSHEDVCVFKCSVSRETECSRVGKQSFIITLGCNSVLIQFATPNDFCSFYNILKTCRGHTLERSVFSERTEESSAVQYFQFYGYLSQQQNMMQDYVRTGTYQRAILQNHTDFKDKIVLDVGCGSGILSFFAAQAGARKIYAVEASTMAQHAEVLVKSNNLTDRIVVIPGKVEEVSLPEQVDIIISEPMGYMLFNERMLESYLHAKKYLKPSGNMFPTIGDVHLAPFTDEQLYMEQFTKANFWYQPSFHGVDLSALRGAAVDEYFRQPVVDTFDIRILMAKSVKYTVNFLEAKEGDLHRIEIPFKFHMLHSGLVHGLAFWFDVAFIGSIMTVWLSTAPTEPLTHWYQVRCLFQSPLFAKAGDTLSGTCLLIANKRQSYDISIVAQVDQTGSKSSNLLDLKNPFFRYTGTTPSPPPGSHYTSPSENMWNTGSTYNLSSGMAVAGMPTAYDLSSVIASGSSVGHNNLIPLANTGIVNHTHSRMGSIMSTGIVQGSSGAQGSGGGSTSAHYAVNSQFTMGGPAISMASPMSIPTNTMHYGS

[8] = biological target: Protein arginine N-methyltransferase 5 (Homo sapiens, UniProt O14744); assay: Inhibition of PRMT5 (unknown origin) using biotinylated histone H4-derived peptide as substrate after 60 mins by AlphaLISA assay
Sequence of Protein arginine N-methyltransferase 5 (O14744 whole entry): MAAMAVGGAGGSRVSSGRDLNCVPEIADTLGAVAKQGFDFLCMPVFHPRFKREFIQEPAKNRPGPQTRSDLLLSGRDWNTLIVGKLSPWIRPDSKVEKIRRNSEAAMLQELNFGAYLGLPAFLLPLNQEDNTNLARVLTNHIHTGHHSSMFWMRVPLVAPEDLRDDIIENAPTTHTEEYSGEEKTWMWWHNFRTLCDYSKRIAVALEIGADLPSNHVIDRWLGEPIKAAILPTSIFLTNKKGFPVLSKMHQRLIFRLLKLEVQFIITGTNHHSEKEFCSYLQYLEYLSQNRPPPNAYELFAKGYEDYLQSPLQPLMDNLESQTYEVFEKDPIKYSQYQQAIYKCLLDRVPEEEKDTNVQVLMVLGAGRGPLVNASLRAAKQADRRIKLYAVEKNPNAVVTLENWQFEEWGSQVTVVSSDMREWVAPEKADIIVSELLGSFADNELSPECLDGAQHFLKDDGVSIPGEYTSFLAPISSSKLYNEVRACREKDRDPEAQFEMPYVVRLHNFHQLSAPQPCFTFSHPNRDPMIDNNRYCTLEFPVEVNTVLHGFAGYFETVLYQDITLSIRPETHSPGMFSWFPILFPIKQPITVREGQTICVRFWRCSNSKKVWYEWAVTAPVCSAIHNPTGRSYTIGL

[9] = biological target: Protein arginine N-methyltransferase 6 (Homo sapiens, UniProt Q96LA8); assay: Inhibition of PRMT6 (unknown origin) using biotinylated histone H4-derived peptide as substrate after 60 mins by AlphaLISA assay
Sequence of Protein arginine N-methyltransferase 6 (Q96LA8 whole entry): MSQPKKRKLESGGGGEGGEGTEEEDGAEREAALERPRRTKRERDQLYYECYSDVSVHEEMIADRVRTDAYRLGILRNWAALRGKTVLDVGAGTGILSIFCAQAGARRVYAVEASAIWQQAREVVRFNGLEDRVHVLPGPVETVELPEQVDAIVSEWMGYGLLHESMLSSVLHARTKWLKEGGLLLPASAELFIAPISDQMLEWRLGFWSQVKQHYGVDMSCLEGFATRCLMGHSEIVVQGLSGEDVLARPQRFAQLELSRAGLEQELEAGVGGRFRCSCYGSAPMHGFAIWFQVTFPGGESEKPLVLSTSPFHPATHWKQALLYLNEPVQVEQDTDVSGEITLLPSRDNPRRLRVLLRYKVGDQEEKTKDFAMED

[10] = biological target: T1, Protein arginine N-methyltransferase 1; assay: Inhibition of PRMT1 in human DLD1 cells assessed as effect on symmetric dimethylation of histone H3R8 level at 1 to 30 uM by Western blotting; type: cell-based; conditions: DLD-1
Target sequence in this assay (Q99873 whole entry, looked up): as the sequence (Q99873 whole entry, looked up) above

[11] = biological target: T1, Protein arginine N-methyltransferase 1; assay: Inhibition of PRMT1 in human DLD1 cells assessed as reduction of asymmetric dimethylation of histone H4R3 level at 3 uM by Western blotting; type: cell-based; conditions: DLD-1
Target sequence in this assay (Q99873 whole entry, looked up): as above

inhibition [1] [%]	SMILES	IC50 (SH-SY5Y) [µM]	IC50 (A-375) [µM]	IC50 [3] [µM]	IC50 (MCF7) [µM]	IC50 [4] [µM]	IC50 [5] [µM]	further results
49	N=C(N)c1ccc(Nc2ncnc(NCC(N)=O)c2[N+](=O)[O-])cc1	–	–	–	–	–	–	–
28	N=C(N)c1ccc(Nc2ncnc(Nc3ccc(N)cc3)c2[N+](=O)[O-])cc1	–	–	–	–	–	–	–

Second part, the compound before the results:

SMILES	inhibition [1] [%]	IC50 (SH-SY5Y) [µM]	IC50 (A-375) [µM]	IC50 [3] [µM]	IC50 (MCF7) [µM]	IC50 [4] [µM]	IC50 [5] [µM]	further results
N=C(N)c1ccc(Nc2ncnc(Nc3ccc(C(N)=O)cc3)c2[N+](=O)[O-])cc1	–	–	–	–	–	–	–	IC50 [2]: 9.3 µM
O=C(Nc1ccc2c(O)cc(S(=O)(=O)O)cc2c1)Nc1ccc2c(O)cc(S(=O)(=O)O)cc2c1	–	> 100	> 100	> 100	> 100	> 100	> 100	–
N=C(N)c1ccc(Nc2ncnc(Nc3ccccc3)c2[N+](=O)[O-])cc1	9	–	–	–	–	–	–	–
N=C(N)c1ccc(Nc2ncnc(Nc3ccc(S(N)(=O)=O)cc3)c2[N+](=O)[O-])cc1	28	92.4	> 100	86.8	> 100	8.5	84.6	–
COc1cc(Nc2ncnc(Nc3ccc(C(=N)N)cc3)c2[N+](=O)[O-])cc(OC)c1OC	44	16.2	87.6	18.3	58.7	83.8	65.4	–
N#Cc1ccc(Nc2ncnc(Nc3ccc(C(=N)N)cc3)c2[N+](=O)[O-])cc1	–	11.4	> 100	13.1	50.6	4.4	45.4	Ki [6]: 1.7 µM; IC50 [7]: 10 µM; IC50 [8]: > 100 µM; IC50 [2]: 2 µM; IC50 [9]: > 100 µM; inhibition [10]: inactive; inhibition [11]: Active
